Experimental data as given in patent publication US20100184699A1, “Peptide Derived From Prostate-Related Protein As Cancer Vaccine Candidate For Prostate Cancer Patient Who Is Positive For Hla-A3 Super-Type Allele Molecule” (priority 2005, published 2010).

Tested on: peptide-specific IgG in plasma of prostate cancer patients and healthy donors
Assay: Detection of peptide-specific IgG in plasma by ELISA
Type: binding, human
Conditions: for IgG reactive to peptide in plasma: 1:100-diluted plasma
[1] = Prostate cancer patient 10, A11
[2] = Prostate cancer patient 16, A33
[3] = Prostate cancer patient 12, A11
[4] = Prostate cancer patient 17, A33
[5] = Prostate cancer patient 19, A33
[6] = Prostate cancer patient 20, A33
[7] = Prostate cancer patient 13, A11
[8] = Prostate cancer patient 14, A33

Substance | IgG reactive to peptide in plasma, Total (positive/tested) (Healthy donors) | IgG reactive to peptide in plasma (Prostate cancer patient 9, A11) | IgG reactive to peptide in plasma, Total (positive/tested) (Prostate cancer patients) | IgG reactive to peptide in plasma (Prostate cancer patient 6, A31) | IgG reactive to peptide in plasma [3] | IgG reactive to peptide in plasma [6] | further results
LYLPFRNCPR (PAP 154-163) [PAP-derived peptide] | 0/9 | + (IgG reactive to a corresponding peptide was judged to be positive when a difference of the optical density (OD) in a 1:100-diluted plasma was more than 100) | 3/20 |  |  |  | IgG reactive to peptide in plasma [1]: + (IgG reactive to a corresponding peptide was judged to be positive when a difference of the optical density (OD) in a 1:100-diluted plasma was more than 100); IgG reactive to peptide in plasma [2]: + (IgG reactive to a corresponding peptide was judged to be positive when a difference of the optical density (OD) in a 1:100-diluted plasma was more than 100)
VTKFMLCAGR (PSA 192-201) [PSA-derived peptide] | 0/9 |  | 1/20 |  |  |  | IgG reactive to peptide in plasma [1]: + (IgG reactive to a corresponding peptide was judged to be positive when a difference of the optical density (OD) in a 1:100-diluted plasma was more than 100)
FIDPLGLPDR (PSMA 675-684) [PSMA-derived peptide] | 0/9 | + (IgG reactive to a corresponding peptide was judged to be positive when a difference of the optical density (OD) in a 1:100-diluted plasma was more than 100) | 10/20 | + (IgG reactive to a corresponding peptide was judged to be positive when a difference of the optical density (OD) in a 1:100-diluted plasma was more than 100) | + (IgG reactive to a corresponding peptide was judged to be positive when a difference of the optical density (OD) in a 1:100-diluted plasma was more than 100) | + (IgG reactive to a corresponding peptide was judged to be positive when a difference of the optical density (OD) in a 1:100-diluted plasma was more than 100) | IgG reactive to peptide in plasma (Prostate cancer patient 2, A31): + (IgG reactive to a corresponding peptide was judged to be positive when a difference of the optical density (OD) in a 1:100-diluted plasma was more than 100); IgG reactive to peptide in plasma (Prostate cancer patient 4, A31): + (IgG reactive to a corresponding peptide was judged to be positive when a difference of the optical density (OD) in a 1:100-diluted plasma was more than 100); IgG reactive to peptide in plasma (Prostate cancer patient 5, A31): + (IgG reactive to a corresponding peptide was judged to be positive when a difference of the optical density (OD) in a 1:100-diluted plasma was more than 100); IgG reactive to peptide in plasma (Prostate cancer patient 8, A11): + (IgG reactive to a corresponding peptide was judged to be positive when a difference of the optical density (OD) in a 1:100-diluted plasma was more than 100); IgG reactive to peptide in plasma [4]: + (IgG reactive to a corresponding peptide was judged to be positive when a difference of the optical density (OD) in a 1:100-diluted plasma was more than 100); IgG reactive to peptide in plasma [5]: + (IgG reactive to a corresponding peptide was judged to be positive when a difference of the optical density (OD) in a 1:100-diluted plasma was more than 100)
LYTKVVHYR (PSA 242-250) [PSA-derived peptide] | 0/9 |  | 0/20 |  |  |  | 
DLVYVNYAR (PSMA 173-181) [PSMA-derived peptide] | 0/9 |  | 5/20 | + (IgG reactive to a corresponding peptide was judged to be positive when a difference of the optical density (OD) in a 1:100-diluted plasma was more than 100) | + (IgG reactive to a corresponding peptide was judged to be positive when a difference of the optical density (OD) in a 1:100-diluted plasma was more than 100) | + (IgG reactive to a corresponding peptide was judged to be positive when a difference of the optical density (OD) in a 1:100-diluted plasma was more than 100) | IgG reactive to peptide in plasma (Prostate cancer patient 4, A31): + (IgG reactive to a corresponding peptide was judged to be positive when a difference of the optical density (OD) in a 1:100-diluted plasma was more than 100); IgG reactive to peptide in plasma (Prostate cancer patient 5, A31): + (IgG reactive to a corresponding peptide was judged to be positive when a difference of the optical density (OD) in a 1:100-diluted plasma was more than 100)
HIHSTNEVTR (PSMA 345-354) [PSMA-derived peptide] | 0/9 | + (IgG reactive to a corresponding peptide was judged to be positive when a difference of the optical density (OD) in a 1:100-diluted plasma was more than 100) | 11/20 | + (IgG reactive to a corresponding peptide was judged to be positive when a difference of the optical density (OD) in a 1:100-diluted plasma was more than 100) | + (IgG reactive to a corresponding peptide was judged to be positive when a difference of the optical density (OD) in a 1:100-diluted plasma was more than 100) | + (IgG reactive to a corresponding peptide was judged to be positive when a difference of the optical density (OD) in a 1:100-diluted plasma was more than 100) | IgG reactive to peptide in plasma (Prostate cancer patient 2, A31): + (IgG reactive to a corresponding peptide was judged to be positive when a difference of the optical density (OD) in a 1:100-diluted plasma was more than 100); IgG reactive to peptide in plasma (Prostate cancer patient 4, A31): + (IgG reactive to a corresponding peptide was judged to be positive when a difference of the optical density (OD) in a 1:100-diluted plasma was more than 100); IgG reactive to peptide in plasma (Prostate cancer patient 5, A31): + (IgG reactive to a corresponding peptide was judged to be positive when a difference of the optical density (OD) in a 1:100-diluted plasma was more than 100); IgG reactive to peptide in plasma [7]: + (IgG reactive to a corresponding peptide was judged to be positive when a difference of the optical density (OD) in a 1:100-diluted plasma was more than 100); IgG reactive to peptide in plasma [2]: + (IgG reactive to a corresponding peptide was judged to be positive when a difference of the optical density (OD) in a 1:100-diluted plasma was more than 100); IgG reactive to peptide in plasma [4]: + (IgG reactive to a corresponding peptide was judged to be positive when a difference of the optical density (OD) in a 1:100-diluted plasma was more than 100); IgG reactive to peptide in plasma [5]: + (IgG reactive to a corresponding peptide was judged to be positive when a difference of the optical density (OD) in a 1:100-diluted plasma was more than 100)
VYIRSTDVDR (PAP 102-111) [PAP-derived peptide] | 0/9 |  | 2/20 |  |  |  | IgG reactive to peptide in plasma [7]: + (IgG reactive to a corresponding peptide was judged to be positive when a difference of the optical density (OD) in a 1:100-diluted plasma was more than 100); IgG reactive to peptide in plasma [8]: + (IgG reactive to a corresponding peptide was judged to be positive when a difference of the optical density (OD) in a 1:100-diluted plasma was more than 100)
PSMA 247-265 (NLPGGGVQRGNILNLNGAG; UniProt Q04609 247-265, looked up, fragment) | 0/9 | + (IgG reactive to a corresponding peptide was judged to be positive when a difference of the optical density (OD) in a 1:100-diluted plasma was more than 100) | 6/20 | + (IgG reactive to a corresponding peptide was judged to be positive when a difference of the optical density (OD) in a 1:100-diluted plasma was more than 100) | + (IgG reactive to a corresponding peptide was judged to be positive when a difference of the optical density (OD) in a 1:100-diluted plasma was more than 100) | + (IgG reactive to a corresponding peptide was judged to be positive when a difference of the optical density (OD) in a 1:100-diluted plasma was more than 100) | IgG reactive to peptide in plasma (Prostate cancer patient 8, A11): + (IgG reactive to a corresponding peptide was judged to be positive when a difference of the optical density (OD) in a 1:100-diluted plasma was more than 100)
SLYTKVVHYR [PSA 241-250] | 0/9 |  | 0/20 |  |  |  | 
FLLFFWLDR [PAP 20-28] | 0/9 |  | 1/20 |  |  |  | IgG reactive to peptide in plasma [8]: + (IgG reactive to a corresponding peptide was judged to be positive when a difference of the optical density (OD) in a 1:100-diluted plasma was more than 100)
VTLVFRHGDR (PAP 38-47) [PAP-derived peptide] | 1/9 | + (IgG reactive to a corresponding peptide was judged to be positive when a difference of the optical density (OD) in a 1:100-diluted plasma was more than 100) | 1/20 |  |  |  | IgG reactive to peptide in plasma (Healthy donor 8, A31): + (IgG reactive to a corresponding peptide was judged to be positive when a difference of the optical density (OD) in a 1:100-diluted plasma was more than 100)
PAP 18-28 (FLFLLFFWLDR; UniProt P15309 18-28, looked up, fragment) | 1/9 |  | 0/20 |  |  |  | IgG reactive to peptide in plasma (Healthy donor 12, A31): + (IgG reactive to a corresponding peptide was judged to be positive when a difference of the optical density (OD) in a 1:100-diluted plasma was more than 100)
WVLTAAHCIR [PSA 59-68] | 0/9 |  | 0/20 |  |  |  | 
